Laboratory results from PMC9569420 (Communications Biology, 2022).

Tests used:
MYO3b = target: T1, MYO3b (Homo sapiens, UniProt Q8WXR4); experiment: HotSpot kinase assay; format: biochemical; settings: read-out: % Enzyme Activity (relative to DMSO controls)
T1 construct: purchased Reaction Biology Corporation

PKD2/PRKD2 = target: T2, PKD2/PRKD2 (Homo sapiens, UniProt Q9BZL6); experiment: HotSpot kinase assay; format: biochemical; settings: read-out: % Enzyme Activity (relative to DMSO controls)
T2 construct: purchased Reaction Biology Corporation

ALK3/BMPR1A = target: T3, ALK3/BMPR1A (Homo sapiens, UniProt P36894); experiment: HotSpot kinase assay; format: biochemical; settings: read-out: % Enzyme Activity (relative to DMSO controls)
T3 construct: purchased Reaction Biology Corporation

HaCat cells = experiment: cell proliferation and viability, ~50% confluence; settings: 0.1–100 μM, 24 and 72 h; except 72 h at 100 μM
SLK/STK2 = target: T4, SLK/STK2 (Homo sapiens, UniProt Q9H2G2); experiment: HotSpot kinase assay; format: biochemical; settings: read-out: % Enzyme Activity (relative to DMSO controls)
T4 construct: purchased Reaction Biology Corporation

PHKg1 = target: T5, PHKg1 (Homo sapiens, UniProt Q16816); experiment: HotSpot kinase assay; format: biochemical; settings: read-out: % Enzyme Activity (relative to DMSO controls)
T5 construct: purchased Reaction Biology Corporation

DRAK1/STK17A = target: T6, DRAK1/STK17A (Homo sapiens, UniProt Q9UEE5); experiment: HotSpot kinase assay; format: biochemical; settings: read-out: % Enzyme Activity (relative to DMSO controls)
T6 construct: purchased Reaction Biology Corporation

HIPK2 = target: T7, HIPK2 (Homo sapiens, UniProt Q9H2X6); experiment: HotSpot kinase assay; format: biochemical; settings: read-out: % Enzyme Activity (relative to DMSO controls)
T7 construct: purchased Reaction Biology Corporation

JNK2 = target: T8, JNK2 (Homo sapiens, UniProt P45984); experiment: HotSpot kinase assay; format: biochemical; settings: read-out: % Enzyme Activity (relative to DMSO controls)
T8 construct: purchased Reaction Biology Corporation

TLK2 = target: T9, TLK2 (Homo sapiens, UniProt Q86UE8); experiment: HotSpot kinase assay; format: biochemical; settings: read-out: % Enzyme Activity (relative to DMSO controls)
T9 construct: purchased Reaction Biology Corporation

CDK5/P25 = target: T10, CDK5/P25 (Homo sapiens, UniProt Q00535); experiment: HotSpot kinase assay; format: biochemical; settings: read-out: % Enzyme Activity (relative to DMSO controls)
T10 construct: purchased Reaction Biology Corporation

YES/YES1 = target: T11, YES/YES1 (Homo sapiens, UniProt P07947); experiment: HotSpot kinase assay; format: biochemical; settings: read-out: % Enzyme Activity (relative to DMSO controls)
T11 construct: purchased Reaction Biology Corporation

RSK2 = target: T12, RSK2 (Homo sapiens, UniProt P51812); experiment: HotSpot kinase assay; format: biochemical; settings: read-out: % Enzyme Activity (relative to DMSO controls)
T12 construct: purchased Reaction Biology Corporation

BRK = target: T13, BRK (Homo sapiens, UniProt Q13882); experiment: HotSpot kinase assay; format: biochemical; settings: read-out: % Enzyme Activity (relative to DMSO controls)
T13 construct: purchased Reaction Biology Corporation

BLK = target: T14, BLK (Homo sapiens, UniProt P51451); experiment: HotSpot kinase assay; format: biochemical; settings: read-out: % Enzyme Activity (relative to DMSO controls)
T14 construct: purchased Reaction Biology Corporation

SBK1 = target: T15, SBK1 (Homo sapiens, UniProt Q52WX2); experiment: HotSpot kinase assay; format: biochemical; settings: read-out: % Enzyme Activity (relative to DMSO controls)
T15 construct: purchased Reaction Biology Corporation

CDK2/cyclin A1 = target: T16, CDK2/cyclin A1 (Homo sapiens, UniProt P24941); experiment: HotSpot kinase assay; format: biochemical; settings: read-out: % Enzyme Activity (relative to DMSO controls)
T16 construct: purchased Reaction Biology Corporation

JAK2 = target: T17, JAK2 (Homo sapiens, UniProt O60674); experiment: HotSpot kinase assay; format: biochemical; settings: read-out: % Enzyme Activity (relative to DMSO controls)
T17 construct: purchased Reaction Biology Corporation

MEKK6 = target: T18, MEKK6 (Homo sapiens, UniProt O95382); experiment: HotSpot kinase assay; format: biochemical; settings: read-out: % Enzyme Activity (relative to DMSO controls)
T18 construct: purchased Reaction Biology Corporation

TYK1/LTK = target: T19, TYK1/LTK (Homo sapiens, UniProt P29376); experiment: HotSpot kinase assay; format: biochemical; settings: read-out: % Enzyme Activity (relative to DMSO controls)
T19 construct: purchased Reaction Biology Corporation

LATS1 = target: T20, LATS1 (Homo sapiens, UniProt O95835); experiment: HotSpot kinase assay; format: biochemical; settings: read-out: % Enzyme Activity (relative to DMSO controls)
T20 construct: purchased Reaction Biology Corporation

CAMK2g = target: T21, CAMK2g (Homo sapiens, UniProt Q13555); experiment: HotSpot kinase assay; format: biochemical; settings: read-out: % Enzyme Activity (relative to DMSO controls)
T21 construct: purchased Reaction Biology Corporation

CDK2/CYCLIN E = target: T22, CDK2/CYCLIN E (Homo sapiens, UniProt P24941); experiment: HotSpot kinase assay; format: biochemical; settings: read-out: % Enzyme Activity (relative to DMSO controls)
T22 construct: purchased Reaction Biology Corporation

SGK3/SGKL = target: T23, SGK3/SGKL (Homo sapiens, UniProt Q96BR1); experiment: HotSpot kinase assay; format: biochemical; settings: read-out: % Enzyme Activity (relative to DMSO controls)
T23 construct: purchased Reaction Biology Corporation

EIF2AK3 = target: T24, EIF2AK3 (Homo sapiens, UniProt Q9NZJ5); experiment: HotSpot kinase assay; format: biochemical; settings: read-out: % Enzyme Activity (relative to DMSO controls)
T24 construct: purchased Reaction Biology Corporation

CDK2/cyclin O = target: T25, CDK2/cyclin O (Homo sapiens, UniProt P24941); experiment: HotSpot kinase assay; format: biochemical; settings: read-out: % Enzyme Activity (relative to DMSO controls)
T25 construct: purchased Reaction Biology Corporation

PKCg = target: T26, PKCg (Homo sapiens, UniProt P05129); experiment: HotSpot kinase assay; format: biochemical; settings: read-out: % Enzyme Activity (relative to DMSO controls)
T26 construct: purchased Reaction Biology Corporation

MNK1 = target: T27, MNK1 (Homo sapiens, UniProt Q9BUB5); experiment: HotSpot kinase assay; format: biochemical; settings: read-out: % Enzyme Activity (relative to DMSO controls)
T27 construct: purchased Reaction Biology Corporation

DDR1 = target: T28, DDR1 (Homo sapiens, UniProt Q08345); experiment: HotSpot kinase assay; format: biochemical; settings: read-out: % Enzyme Activity (relative to DMSO controls)
T28 construct: purchased Reaction Biology Corporation

PLK3 = target: T29, PLK3 (Homo sapiens, UniProt Q9H4B4); experiment: HotSpot kinase assay; format: biochemical; settings: read-out: % Enzyme Activity (relative to DMSO controls)
T29 construct: purchased Reaction Biology Corporation

NEK1 = target: T30, NEK1 (Homo sapiens, UniProt Q96PY6); experiment: HotSpot kinase assay; format: biochemical; settings: read-out: % Enzyme Activity (relative to DMSO controls)
T30 construct: purchased Reaction Biology Corporation

PDK4/PDHK4 = target: T31, PDK4/PDHK4 (Homo sapiens, UniProt Q16654); experiment: HotSpot kinase assay; format: biochemical; settings: 10µM; read-out: % Enzyme Activity (relative to DMSO controls)
T31 construct: purchased Reaction Biology Corporation
Experimental: (§1) Kinase activity were performed by Reaction Biology Corporation using the “HotSpot” assay platform modified from the published procedure.

AMPK(A2/B2/G2) = target: T32, AMPK(A2/B2/G2) (Homo sapiens, UniProt P54646); experiment: HotSpot kinase assay; format: biochemical; settings: 10µM; read-out: % Enzyme Activity (relative to DMSO controls)
T32 construct: purchased Reaction Biology Corporation
Experimental: as §1

DYRK4 = target: T33, DYRK4 (Homo sapiens, UniProt Q9NR20); experiment: HotSpot kinase assay; format: biochemical; settings: 10µM; read-out: % Enzyme Activity (relative to DMSO controls)
T33 construct: purchased Reaction Biology Corporation
Experimental: as §1

TTBK2 = target: T34, TTBK2 (Homo sapiens, UniProt Q6IQ55); experiment: HotSpot kinase assay; format: biochemical; settings: 10µM; read-out: % Enzyme Activity (relative to DMSO controls)
T34 construct: purchased Reaction Biology Corporation
Experimental: as §1

AMPK (A1/B2/G3) = target: T35, AMPK (A1/B2/G3) (Homo sapiens, UniProt Q13131); experiment: HotSpot kinase assay; format: biochemical; settings: 10µM; read-out: % Enzyme Activity (relative to DMSO controls)
T35 construct: purchased Reaction Biology Corporation
Experimental: as §1

COT1/MAP3K8 = target: T36, COT1/MAP3K8 (Homo sapiens, UniProt P41279); experiment: HotSpot kinase assay; format: biochemical; settings: 10µM; read-out: % Enzyme Activity (relative to DMSO controls)
T36 construct: purchased Reaction Biology Corporation
Experimental: as §1

LOK/STK10 = target: T37, LOK/STK10 (Homo sapiens, UniProt O94804); experiment: HotSpot kinase assay; format: biochemical; settings: 10µM; read-out: % Enzyme Activity (relative to DMSO controls)
T37 construct: purchased Reaction Biology Corporation
Experimental: as §1

EIF2AK1 = target: T38, EIF2AK1 (Homo sapiens, UniProt Q9BQI3); experiment: HotSpot kinase assay; format: biochemical; settings: 10µM; read-out: % Enzyme Activity (relative to DMSO controls)
T38 construct: purchased Reaction Biology Corporation
Experimental: as §1

AMPK(A1/B2/G1) = target: T39, AMPK(A1/B2/G1) (Homo sapiens, UniProt Q13131); experiment: HotSpot kinase assay; format: biochemical; settings: 10µM; read-out: % Enzyme Activity (relative to DMSO controls)
T39 construct: purchased Reaction Biology Corporation
Experimental: as §1

TGFBR2 = target: T40, TGFBR2 (Homo sapiens, UniProt P37173); experiment: HotSpot kinase assay; format: biochemical; settings: 10µM; read-out: % Enzyme Activity (relative to DMSO controls)
T40 construct: purchased Reaction Biology Corporation
Experimental: as §1

AMPK (A2/B1/G3) = target: T41, AMPK (A2/B1/G3) (Homo sapiens, UniProt P54646); experiment: HotSpot kinase assay; format: biochemical; settings: 10µM; read-out: % Enzyme Activity (relative to DMSO controls)
T41 construct: purchased Reaction Biology Corporation
Experimental: as §1

T14 sequence (P51451 whole entry): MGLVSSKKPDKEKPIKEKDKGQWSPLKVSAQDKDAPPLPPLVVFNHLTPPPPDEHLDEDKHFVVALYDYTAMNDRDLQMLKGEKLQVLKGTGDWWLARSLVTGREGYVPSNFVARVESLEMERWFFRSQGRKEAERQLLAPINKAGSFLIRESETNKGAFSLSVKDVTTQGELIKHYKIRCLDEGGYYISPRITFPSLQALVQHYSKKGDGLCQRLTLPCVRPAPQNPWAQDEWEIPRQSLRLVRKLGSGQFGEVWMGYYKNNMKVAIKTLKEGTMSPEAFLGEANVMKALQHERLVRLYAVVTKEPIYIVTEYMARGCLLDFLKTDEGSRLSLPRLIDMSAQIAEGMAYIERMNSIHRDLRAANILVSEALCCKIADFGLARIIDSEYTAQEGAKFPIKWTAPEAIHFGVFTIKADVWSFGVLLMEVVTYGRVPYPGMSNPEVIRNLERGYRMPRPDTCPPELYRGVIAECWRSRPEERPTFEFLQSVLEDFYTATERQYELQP
T19 sequence (P29376 17-864): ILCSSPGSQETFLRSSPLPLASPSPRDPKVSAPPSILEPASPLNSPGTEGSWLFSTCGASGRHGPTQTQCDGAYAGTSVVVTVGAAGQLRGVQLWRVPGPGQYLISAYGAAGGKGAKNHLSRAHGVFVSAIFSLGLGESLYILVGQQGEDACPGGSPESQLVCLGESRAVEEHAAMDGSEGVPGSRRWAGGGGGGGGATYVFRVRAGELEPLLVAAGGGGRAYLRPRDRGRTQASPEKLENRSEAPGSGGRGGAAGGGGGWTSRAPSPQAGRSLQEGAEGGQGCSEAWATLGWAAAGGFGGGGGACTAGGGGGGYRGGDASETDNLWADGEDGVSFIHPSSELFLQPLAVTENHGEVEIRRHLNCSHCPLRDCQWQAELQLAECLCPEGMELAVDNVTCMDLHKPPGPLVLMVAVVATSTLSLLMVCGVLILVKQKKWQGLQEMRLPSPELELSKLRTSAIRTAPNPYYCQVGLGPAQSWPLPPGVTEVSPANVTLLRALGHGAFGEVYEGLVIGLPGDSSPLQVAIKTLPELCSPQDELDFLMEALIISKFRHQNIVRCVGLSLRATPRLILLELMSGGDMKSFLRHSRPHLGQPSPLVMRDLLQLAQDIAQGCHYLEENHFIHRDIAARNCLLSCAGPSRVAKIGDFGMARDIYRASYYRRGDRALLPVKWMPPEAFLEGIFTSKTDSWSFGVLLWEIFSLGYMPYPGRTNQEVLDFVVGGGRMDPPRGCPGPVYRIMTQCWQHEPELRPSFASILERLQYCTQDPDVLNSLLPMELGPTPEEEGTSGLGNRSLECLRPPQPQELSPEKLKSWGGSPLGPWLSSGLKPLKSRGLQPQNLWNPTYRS
T38 sequence (Q9BQI3 whole entry): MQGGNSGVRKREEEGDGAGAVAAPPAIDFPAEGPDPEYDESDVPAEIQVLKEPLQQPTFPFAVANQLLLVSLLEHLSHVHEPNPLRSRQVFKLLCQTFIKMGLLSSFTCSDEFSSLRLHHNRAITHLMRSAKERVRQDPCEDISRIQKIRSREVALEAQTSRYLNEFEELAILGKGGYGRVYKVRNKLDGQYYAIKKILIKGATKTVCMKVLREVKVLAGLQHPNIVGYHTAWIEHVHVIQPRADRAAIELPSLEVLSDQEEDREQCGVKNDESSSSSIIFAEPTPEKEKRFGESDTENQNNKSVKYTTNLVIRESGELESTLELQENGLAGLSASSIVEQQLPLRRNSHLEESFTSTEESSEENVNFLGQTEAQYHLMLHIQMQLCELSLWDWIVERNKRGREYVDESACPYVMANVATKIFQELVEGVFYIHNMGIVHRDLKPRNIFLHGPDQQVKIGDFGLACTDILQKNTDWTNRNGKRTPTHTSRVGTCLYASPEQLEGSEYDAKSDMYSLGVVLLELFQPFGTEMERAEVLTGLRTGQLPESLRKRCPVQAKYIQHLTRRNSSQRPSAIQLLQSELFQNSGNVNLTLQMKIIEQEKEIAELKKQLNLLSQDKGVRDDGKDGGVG
T31 sequence (Q16654 whole entry): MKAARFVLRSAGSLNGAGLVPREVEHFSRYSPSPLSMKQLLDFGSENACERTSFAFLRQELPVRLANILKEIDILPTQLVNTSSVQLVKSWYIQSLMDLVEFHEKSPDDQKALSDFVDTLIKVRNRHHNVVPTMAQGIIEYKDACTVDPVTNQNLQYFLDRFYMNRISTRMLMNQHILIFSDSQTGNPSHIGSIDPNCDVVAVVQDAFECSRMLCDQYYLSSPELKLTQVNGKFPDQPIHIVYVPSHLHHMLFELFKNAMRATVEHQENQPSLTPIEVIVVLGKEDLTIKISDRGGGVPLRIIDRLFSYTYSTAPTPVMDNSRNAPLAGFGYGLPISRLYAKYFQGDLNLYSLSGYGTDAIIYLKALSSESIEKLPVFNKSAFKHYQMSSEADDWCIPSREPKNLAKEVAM
T32 sequence (P54646 whole entry): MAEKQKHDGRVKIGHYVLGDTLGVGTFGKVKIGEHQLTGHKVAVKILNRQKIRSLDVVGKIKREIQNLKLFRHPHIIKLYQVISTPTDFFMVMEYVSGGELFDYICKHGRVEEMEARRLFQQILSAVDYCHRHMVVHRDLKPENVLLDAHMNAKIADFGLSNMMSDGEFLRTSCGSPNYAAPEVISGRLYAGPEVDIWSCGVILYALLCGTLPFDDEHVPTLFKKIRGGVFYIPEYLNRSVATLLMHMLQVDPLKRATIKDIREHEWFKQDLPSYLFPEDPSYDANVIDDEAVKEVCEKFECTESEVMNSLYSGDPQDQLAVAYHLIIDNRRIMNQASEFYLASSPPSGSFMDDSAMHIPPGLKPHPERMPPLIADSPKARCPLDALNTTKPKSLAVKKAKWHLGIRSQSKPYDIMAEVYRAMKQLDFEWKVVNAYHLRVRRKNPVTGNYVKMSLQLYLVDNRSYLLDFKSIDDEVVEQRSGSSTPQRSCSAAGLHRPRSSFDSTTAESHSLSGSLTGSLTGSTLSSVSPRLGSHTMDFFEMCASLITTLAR
T32 sequence (O43741 whole entry partner): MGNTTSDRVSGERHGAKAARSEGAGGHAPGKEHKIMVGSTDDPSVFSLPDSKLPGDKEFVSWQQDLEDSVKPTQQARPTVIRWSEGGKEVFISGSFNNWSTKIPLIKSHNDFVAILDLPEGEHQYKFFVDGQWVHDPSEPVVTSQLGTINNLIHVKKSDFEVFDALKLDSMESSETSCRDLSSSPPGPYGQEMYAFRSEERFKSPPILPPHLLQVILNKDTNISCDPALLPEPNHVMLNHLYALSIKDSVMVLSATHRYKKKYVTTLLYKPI
T32 sequence (Q9UGJ0 whole entry partner): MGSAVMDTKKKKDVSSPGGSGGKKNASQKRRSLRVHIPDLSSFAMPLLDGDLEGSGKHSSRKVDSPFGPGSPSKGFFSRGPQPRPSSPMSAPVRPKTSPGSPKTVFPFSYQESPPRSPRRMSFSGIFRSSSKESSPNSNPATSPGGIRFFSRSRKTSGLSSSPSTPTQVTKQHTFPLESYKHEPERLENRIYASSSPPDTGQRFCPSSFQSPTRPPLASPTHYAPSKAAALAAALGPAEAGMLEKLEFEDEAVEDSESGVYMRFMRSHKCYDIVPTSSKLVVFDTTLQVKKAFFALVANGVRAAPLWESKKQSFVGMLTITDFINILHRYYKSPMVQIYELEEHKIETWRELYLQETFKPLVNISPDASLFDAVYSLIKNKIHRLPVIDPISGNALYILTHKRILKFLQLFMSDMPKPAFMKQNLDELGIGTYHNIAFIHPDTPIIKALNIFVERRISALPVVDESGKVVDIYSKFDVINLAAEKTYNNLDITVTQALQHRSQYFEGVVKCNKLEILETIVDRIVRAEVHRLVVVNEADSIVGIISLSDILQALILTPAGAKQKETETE
T41 sequence (P54646 whole entry): as the sequence (P54646 whole entry) above
T41 sequence (Q9Y478 whole entry partner): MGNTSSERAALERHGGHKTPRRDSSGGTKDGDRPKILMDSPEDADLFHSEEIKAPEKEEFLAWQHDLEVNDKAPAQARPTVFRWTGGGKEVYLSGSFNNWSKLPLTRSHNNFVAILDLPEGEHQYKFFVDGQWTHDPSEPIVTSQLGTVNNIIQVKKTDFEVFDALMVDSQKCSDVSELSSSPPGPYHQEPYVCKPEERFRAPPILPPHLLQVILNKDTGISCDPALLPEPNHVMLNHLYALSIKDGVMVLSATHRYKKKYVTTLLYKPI
T41 sequence (Q9UGI9 whole entry partner): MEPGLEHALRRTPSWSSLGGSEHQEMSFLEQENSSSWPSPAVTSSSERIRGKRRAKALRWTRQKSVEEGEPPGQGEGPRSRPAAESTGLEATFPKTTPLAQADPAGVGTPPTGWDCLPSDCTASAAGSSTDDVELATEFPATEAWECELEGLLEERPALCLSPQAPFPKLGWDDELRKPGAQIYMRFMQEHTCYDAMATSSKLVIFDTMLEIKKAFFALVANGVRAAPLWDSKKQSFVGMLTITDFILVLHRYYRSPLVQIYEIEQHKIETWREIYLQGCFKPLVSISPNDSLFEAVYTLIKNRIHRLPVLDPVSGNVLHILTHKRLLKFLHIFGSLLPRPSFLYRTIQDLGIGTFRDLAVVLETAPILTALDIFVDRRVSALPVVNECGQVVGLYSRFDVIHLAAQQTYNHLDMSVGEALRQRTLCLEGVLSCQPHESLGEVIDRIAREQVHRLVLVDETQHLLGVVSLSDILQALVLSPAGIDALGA
T5 sequence (Q16816 whole entry): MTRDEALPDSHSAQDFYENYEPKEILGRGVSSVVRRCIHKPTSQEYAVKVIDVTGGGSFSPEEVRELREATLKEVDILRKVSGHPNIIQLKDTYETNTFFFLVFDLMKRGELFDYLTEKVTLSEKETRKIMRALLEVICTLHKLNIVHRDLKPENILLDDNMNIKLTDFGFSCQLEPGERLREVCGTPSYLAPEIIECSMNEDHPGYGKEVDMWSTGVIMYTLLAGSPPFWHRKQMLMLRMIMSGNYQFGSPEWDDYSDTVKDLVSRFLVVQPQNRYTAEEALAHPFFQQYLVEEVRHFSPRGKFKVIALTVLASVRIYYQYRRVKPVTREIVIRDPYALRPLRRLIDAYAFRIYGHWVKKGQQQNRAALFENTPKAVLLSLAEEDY

Work on `CO[C@@H]1[C@H](N(C)C(=O)CCC(=O)NCc2cn(CCCS(=O)(=O)O)nn2)C[C@H]2O[C@]1(C)n1c3ccccc3c3c4c(c5c6ccccc6n2c5c31)C(=O)NC4` [CIMSS] yielded a remaining activity at 10 µM (MYO3b) of 4.81%, a remaining activity at 10 µM (PKD2/PRKD2) of 11.9% and a remaining activity at 10 µM (ALK3/BMPR1A) of 79.5%. The “inhibition of cell growth” value (HaCat cells) was “no significant inhibition”, the remaining activity at 10 µM (SLK/STK2) was 6.42% and the remaining activity at 10 µM (PHKg1) was 3.74%. For the same compound, the remaining activity at 10 µM (DRAK1/STK17A) was 18.2%, the remaining activity at 10 µM (HIPK2) was 17.5% and the remaining activity at 10 µM (JNK2) was 42.3%. The remaining activity at 10 µM (TLK2) was 67%, the remaining activity at 10 µM (CDK5/P25) was 7.17% and the remaining activity at 10 µM (YES/YES1) was 1.4%. For the same compound, the remaining activity at 10 µM (RSK2) was 1.69%, the remaining activity at 10 µM (BRK) was 25.5% and the remaining activity at 10 µM (BLK) was 0.34%. It also gave a remaining activity at 10 µM (SBK1) of 78.8%, a remaining activity at 10 µM (CDK2/cyclin A1) of 7.95% and a remaining activity at 10 µM (JAK2) of 1.13%. It also gave a remaining activity at 10 µM (MEKK6) of 110%, a remaining activity at 10 µM (TYK1/LTK) of 7.18% and a remaining activity at 10 µM (LATS1) of 9.89%. The remaining activity at 10 µM (CAMK2g) was 1.25%, the remaining activity at 10 µM (CDK2/CYCLIN E) was 7.89% and the remaining activity at 10 µM (SGK3/SGKL) was 59.6%. The remaining activity at 10 µM (EIF2AK3) was 61.6%, the remaining activity at 10 µM (CDK2/cyclin O) was 4.97% and the remaining activity at 10 µM (PKCg) was 1.77%. It also gave a remaining activity at 10 µM (MNK1) of 42.6%, a remaining activity at 10 µM (DDR1) of 0.98% and a remaining activity at 10 µM (PLK3) of 98.2%. For the same compound, the remaining activity at 10 µM (NEK1) was 5.88%, the remaining activity at 10 µM (PDK4/PDHK4) was 93.2% and the remaining activity at 10 µM (AMPK(A2/B2/G2)) was 0.73%. For the same compound, the remaining activity at 10 µM (DYRK4) was 92%, the remaining activity at 10 µM (TTBK2) was 95.1% and the remaining activity at 10 µM (AMPK (A1/B2/G3)) was 1.13%. For the same compound, the remaining activity at 10 µM (COT1/MAP3K8) was 110%, the remaining activity at 10 µM (LOK/STK10) was 2.86% and the remaining activity at 10 µM (EIF2AK1) was 82.5%. It also gave a remaining activity at 10 µM (AMPK(A1/B2/G1)) of 0.73%, a remaining activity at 10 µM (TGFBR2) of 111% and a remaining activity at 10 µM (AMPK (A2/B1/G3)) of 0.67%.
